This note sets out measurements from paper PMC12844124, “Synthesis and Study of Substituted Chalcones Combined with Fluoroazobenzenes—New Photoswitches for Application in Biological Systems” (Molecules, 2026).

Series [1] concerns PC-3 cells. Put plainly: Cell cycle analysis by flow cytometry, PC-3. The following applies: Z conformer, 24 h; for percentage of cells in the G2/M phase: control 26.5%. In kind it is cell-based, human. The method, then:
The BJ or PC-3 cells were treated as described previously, with the exception that 0.15 × 10^6 cells per well were seeded in 6-well plates. After 24 h of treatment, cells were harvested by trypsinization (Biowest, Nuaillé, France, L0931), washed twice, resuspended in PBS, and added to cold 70% ethanol for overnight fixation at −20 °C. Subsequently, cells were centrifuged and resuspended in PBS containing 5 µg/mL of propidium iodide in PBS (Sigma-Aldrich, St. Louis, MO, USA, 4170), 0.1% Triton X-100, and 10 µg/mL of DNAse-free RNAse (A&A Biotechnology, Gdansk, Poland, 1006-10) in the dark for 4 h at 37 °C. FACS analysis was performed using a FACSCanto II flow cytometer and FACSDiva, version 9.0 software (BD Biosciences, San Jose, CA, USA). Flow rate was set to about 1000 events/cells per second. Signals from at least 10,000 events per sample were captured. The percentages of PC-3 cells in cell cycle phases (G0/G1, S, and G2/M) were determined using ModFit LT 4.1.7 (Verity Software House, Topsham, ME, USA).

The nature of series [2]: Photostationary state (PSS) composition by 19F NMR. The following applies: irradiation 525 nm, DMSO-d6. It is filed as physicochemical. From the text:
Azo compounds have been applied in various fields due to their ability to undergo structural changes, with one of the most interesting applications being the direct conversion of light into mechanical energy. However, azobenzenes generally face two main limitations that hinder their practical use in biological and materials sciences. The first is the need for UV light to induce the E→Z isomerization through π→π* excitation, which can potentially interfere with and damage the surrounding environment. The second limitation is the typically incomplete reverse Z→E photoisomerization, which is induced by irradiation in the visible region. In this region, the n→π* bands of the E and Z isomers largely overlap, making it difficult to achieve E-rich photostationary states (PSSs) after back-switching. These limitations can be overcome by modifying azobenzene in such a way that the n→π* bands of the E and Z isomers are sufficiently separated. If the separation is large enough, the two n→π* bands can be distinct, allowing visible light to selectively isomerize both isomers with high to complete E/Z photoconversions. We are looking for switches that operate within the visible light range of 380–750 nm, which is harmless. Fluorine-substituted azobenzenes are well-suited for designing visible-light-responsive systems, offering stable and bidirectional photoconversions along with tissue-compatible properties. We confirmed that the compounds we synthesized successfully dock with tubulin. In the next step, we tested whether the added azo compound would meet our expectations as a visible light switch. For this purpose, we used NMR spectroscopy. We measured ^19F spectra of (17a–17c, 17e–17g, and 17i–17l) at nine wavelengths from 390 nm to 610 nm to check which wavelengths produce the most Z isomer after exposure (see Section S4.2 in Supplementary Materials). We selected DMSO as the solvent due to its ability to dissolve both polar and nonpolar molecules, which is essential for the analytical methods employed in this study. Its intermediate polarity also makes it a good surrogate for both organic and aqueous solvents. Additionally, DMSO is commonly used for preparing stock solutions, which are then illuminated and diluted into aqueous systems for assessing biological activity. […]
Figure 2 (a) Photostationary state (PSS) compositions for chalcones (17a–17c, 17e–17g, and 17i–17l) determined by ^19F NMR analysis (c ≈ 100 mM in DMSO-d6), presented in a bar chart; (b) representative multiple photoswitching rounds of 60 µM of (17j) in DMSO by pulsed green (525 nm) and blue (430 nm) light illumination. The photochemical stability of the drug is analyzed via repeated cycles of irradiation (software: Microsoft Excel).

Series [3] can be described thus: UV–VIS spectra of E/Z isomers in DMSO. It is filed as physicochemical. As for the experimental part:
For this purpose, the UV–VIS spectra were measured for all synthesized hybrids (17a–17l) at concentrations from 20 to 500 µM in dimethyl sulfoxide (DMSO) in light at λ 505 nm and for (17a–17c), (17e–17g), and (17i–17l) at λ 525 nm, respectively, as detailed in Table 1 (see Section S4.4 in Supplementary Materials).

Series [4] is described as follows: Changes over time of Z to E transition by 19F NMR. In kind it is physicochemical. The following applies: light 525 nm, 100 mM in DMSO. The source says:
We can observe that for electromagnetic radiation in the range of wavelengths 390 nm to 610 nm, transitions from E to Z of about 0–76% are obtained. The best results for all compounds are in visible wavelengths 505 nm or 525 nm (30.59–75.44%). From analyzing Figure 2 we can draw the following conclusions: all synthesized compounds undergo switching under visible light (this is important because UV radiation can damage the DNA of cells, inhibiting replication and, as a result, preventing cell division). For the 2,6-difluoro substituents (17i), (17j), (17k), and (17l) with values of 74.84%, 73.2%, 74.39%, and 75.44%, respectively, the largest share of the Z configuration is at (525 nm) and, for the rest of (17a), (17b), (17c), (17e), (17f), and (17g), it is in range of 30.57–47.13% at 505 nm. […] Multiple cycles of photoreversible switching under alternating green and blue light irradiation, with no significant photobleaching or degradation, confirmed the repeatable and robust photochromic conversion of the synthesized azobenzenes (Figure 2b). Then we measured changes over time (transitions from Z to E, upon irradiation with 505 nm for (17a–17c) and (17e–17g), and 525 nm for (17i–17l) compounds (Figure 3, and see Section S4.3 in Supplementary Materials).

As to `COc1cc(/C=C/C(=O)c2cccc(/N=N/c3c(F)cccc3F)c2)cc(OC)c1` [Compound 17j], the results for the “percentage of cells in the G2/M phase” value in series [1] (20 µM), in series [1] (30 µM) and in series [1] (40 µM) were 30.2%, 37.0% and 32.1%, respectively. In addition, the entries for the “percentage of cells in the S phase” value in series [1] (30 µM) and in series [1] (40 µM) were 28.8% and 31%, respectively. The “share of the Z configuration (PSS)” value in series [2] was 73.2%. Moreover, the “εmax (n→π*)” value in series [3] (E isomer) is listed as 922 dm^3·mol^−1·cm^−1; in series [3] (Z isomer), 1130 dm^3·mol^−1·cm^−1. Also, in series [3] (E isomer), the “λmax n→π* (E)” value stood at 448.3 nm. In addition, in series [3] (Z isomer), the “λmax n→π* (Z)” value was 417.4 nm. In addition, the “Δ λmax n→π*” value in series [3] (between E and Z isomers) came to 30.9 nm. In addition, the “Z isomer, changes over time” value was 73.2% in series [4] (0 h); 72.55% in series [4] (1 h); 71.89% in series [4] (2 h); 71.23% in series [4] (3 h); 71% in series [4] (4 h); 70.01% in series [4] (5 h). Further, the “Z isomer, changes over time” value was found to be 69.58% in series [4] (6 h), 69.12% in series [4] (7 h) and 67.9% in series [4] (8 h). In addition, the “Δ (Z to E change 0 h to 8 h)” value in series [4] worked out at 5.3%.
